How the values were obtained:
[1] = system: patient having deep corneal abrasion; assay: Example C: saline-based drops for a patient having deep corneal abrasion; type: in vivo, human; conditions: 5% w/w drop to each eye twice a day
Text: A saline-based composition for local administration, according to the present invention, is made comprising:
A patient having deep corneal abrasion applies the drop to each eye twice a day.

[2] = system: human subject suffering from osteoarthritis; assay: Example B: capsule given to a human subject suffering from osteoarthritis; type: in vivo; conditions: capsule containing 70 mg daily for 5 years, 90 kg person
Procedure: A capsule for oral administration, according to the present invention, is made comprising:
A human subject weighing 90 kg (198 lbs.), suffering from osteoarthritis, is treated by a method of this invention. Specifically, for 5 years, a capsule containing 70 mg of the compound of Example 3 is administered daily to said subject.

[3] = system: patient suffering from chemical burns; assay: Example D: topical composition for a patient suffering from chemical burns; type: in vivo, human; conditions: 0.20% w/v topical composition at each dressing change (b.i.d.)
Text: A topical composition for local administration, according to the present invention, is made comprising:
A patient suffering from chemical burns applies the composition at each dressing change (b.i.d.).

[4] = system: human subject suffering from rheumatoid arthritis; assay: Example A: tablet given to a human subject suffering from rheumatoid arthritis; type: in vivo; conditions: three tablets (15 mg compound each) per day orally for 2 years, 60 kg person
Procedure: A tablet composition for oral administration, according to the present invention, is made comprising:
A human subject weighing 60 kg (132 lbs), suffering from rheumatoid arthritis, is treated by a method of this invention. Specifically, for 2 years, a regimen of three tablets per day is administered orally to said subject.

[5] = system: human subject with a premetastatic tumor; assay: Example G: parenteral suspension injected next to a premetastatic tumor; type: in vivo; conditions: about 2.0 mL of 100 mg/mL suspension injected beside the tumor twice daily; after 30 days
Procedure: A composition for parenteral administration is made comprising:
The above ingredients are mixed, forming a suspension. Approximately 2.0 mL of the suspension is administered, via injection, to a human subject with a premetastatic tumor. The injection site juxtaposes the tumor. This dosage is repeated twice daily, for approximately 30 days.

asthma sufferer = assay: Example E: inhalation aerosol for an asthma sufferer; type: in vivo, human; conditions: 5.0% w/v aerosol, 0.01 mL sprayed into the mouth while inhaling
Procedure: An inhalation aerosol composition, according to the present invention, is made comprising: [table] An asthma sufferer sprays 0.01 mL via a pump actuator into the mouth while inhaling. Asthma symptoms are diminished.

COc1ccc(-c2ccc(S(=O)(=O)NC(C(=O)O)C3CCC(O)CC3)cc2)cc1 (centres unmarked) [Example 1, N-{[4′-Methoxy-(1,1′-biphenyl)-4-yl]-sulfonylamino}-(4-hydroxycyclohexan-1-yl)-acetic Acid]
healing of deep corneal abrasion [1]: speeded
visual sequelae [1]: no visual sequelae

O=C(O)[C@H](NS(=O)(=O)c1ccc(-c2ccc(Br)cc2)cc1)C1CCC2(CC1)OCCCO2 [Example 3, (R)-N-{[4′-bromo-(1,1′-biphenyl)-4-yl]-sulfonyl}-amino-(1,5-dioxa-spiro[5.5]undec-9-yl)-acetic]
advancement of erosion/fibrillation of the articular cartilage (x-ray, arthroscopy and/or MRI) [2]: no further advancement
scarring [3]: substantially diminished

COc1ccc(-c2ccc(S(=O)(=O)NC(C(=O)O)C3CCCC(N(Cc4ccccc4)S(C)(=O)=O)C3)cc2)cc1 (centres unmarked) [Example 31, N-{[4′-methoxy-(1,1′-biphenyl)-4-yl]-sulfonyl}-amino-[3-(N-benzyl-N-methanesulfonylamino)-cyclohexan-1-yl]-acetic acid]
inflammation at the end of the treatment period [4]: reduced inflammation
mobility at the end of the treatment period [4]: improved mobility without concomitant pain
symptoms of the disease [5]: subside

COc1ccc(-c2ccc(S(=O)(=O)NC(C(=O)O)C3CCCC(N(C)C(C)=O)C3)cc2)cc1 (centres unmarked) [Example 33, N-{[4′-methoxy-(1,1-biphenyl)-4-yl]-sulfonyl}-amino-[3-(N-methyl-N-acetylamino)-cyclohexan-1-yl]-acetic Acid]
asthma symptoms (asthma sufferer): diminished
